According to US8853246B2 (Dow AgroSciences LLC, priority 2009, dated 2014):
Read-outs that look alike come from different tables or passages of the source.

Key:
[1] = tested on: Green Peach Aphid (Myzus Persicae); experiment: Insecticidal test for green peach aphid in foliar spray assay (col. MYZUPE); type: in vivo; details: for pest or weed control at 200 ppm: Myzus persicae, 72 h, read-out: MYZUPE 200 ppm (Corrected % Control, rating)
Procedure, shortened: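 Corrected % control derives from microscope counts of live aphids per plant, treated against diluent-only checks, 3 days after foliar spraying at ~25 °C and 40% RH. Test solution was 200 ppm in 0.025% aqueous Tween 20, applied to both leaf sides of infested cabbage seedlings, four pots each.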

[2] = tested on: Sweetpotato Whitefly-Crawler (Bemisia Tabaci); experiment: Insecticidal test for sweetpotato whitefly-crawler in foliar spray assay (col. BEMITA); type: in vivo; details: for pest or weed control at 200 ppm: Bemisia tabaci, read-out: BEMITA 200 ppm (Corrected % Control, rating)
Procedure, shortened: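 Percent control, Abbott-corrected against diluent-sprayed plants, from microscope counts of live nymphs 8-9 days after treatment. Test solution at 200 ppm in 0.025% aqueous Tween 20 applied to both leaf sides of egg-infested cotton after a 5-6 day hatch period (82° F, 50% RH).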

Row | SMILES | pest or weed control at 200 ppm ([1]; green peach aphid) [%] | pest or weed control at 200 ppm ([2]; sweetpotato whitefly-crawler) [%] | pest or weed control at 200 ppm ([1]; Abbott's correction formula) [%] | pest or weed control at 200 ppm ([2]; Abbott's correction formula) [%] | further results
1 | CC(=O)c1ccc(C(=O)Nc2sc(-c3cccnc3)nc2C)s1 [Compound 347] | < 80 | < 80 |  |  | 
2 | CCOC(=O)N(C)c1cnc(-c2cncc(F)c2)s1 [Compound 76, [2-(5-Fluoropyridin-3-yl)-thiazol-5-yl]-methyl-carbamic acid ethyl ester] | 80 to 100 | 80 to 100 |  |  | 
3 | CCSCC(=O)N(C)c1sc(-c2cccnc2)nc1C [Compound 358] | 80 to 100 | 80 to 100 |  |  | 
4 | CCN(C(=O)C(C)C)c1sc(-c2cccnc2)nc1Br [Compound 457] |  |  | 80 to 100 | 80 to 100 | 
5 | Cc1nc(-c2cccnc2)sc1N(C)C(=O)C(NC(=O)OC(C)(C)C)C(C)OCc1ccccc1 (stereo not shown) [Compound 293] | 80 to 100 | < 80 |  |  | 
6 | CCN(C(=O)CC[S+](C)[O-])c1sc(-c2cncc(F)c2)nc1F (stereo not shown) [Compound 427] |  |  | 80 to 100 | 80 to 100 | 
7 | CCN(C(=O)c1ccc(C[S+](C)[O-])o1)c1sc(-c2cccnc2)nc1Cl (stereo not shown) [Compound 549] |  |  | 80 to 100 | 80 to 100 | 
8 | CCN(C(=O)c1ccnc(C)c1)c1sc(-c2cccnc2)nc1Cl [Compound 544] |  |  | 80 to 100 | < 80 | 
9 | Cc1nc(-c2cccnc2)sc1NC(=O)c1ccoc1 [Compound 399] | 80 to 100 | 80 to 100 |  |  | 
10 | CN(C(=O)CC[S+](C)[O-])c1sc(-c2cccnc2)nc1Cl (stereo not shown) [Compound 174] | 80 to 100 | 80 to 100 |  |  | 
11 | CNC(C)C(=O)N(C)c1sc(-c2cccnc2)nc1C (stereo not shown) [Compound 295] | < 80 | 80 to 100 |  |  | 
12 | CC[C@H](NC(=O)OC(C)(C)C)C(=O)N(C)c1sc(-c2cccnc2)nc1C [Compound 312] | 80 to 100 | 80 to 100 |  |  | 
13 | CSCCC(=O)N(C)c1sc(-c2cncc(C#N)c2)nc1Cl [Compound 508] |  |  | < 80 | 80 to 100 | 
14 | CCN(C(=O)c1cccnc1)c1sc(-c2cccnc2)nc1Cl [Compound 571] |  |  | 80 to 100 | < 80 | 
15 | COCCN(C(=O)OC(C)(C)C)c1sc(-c2cccnc2)nc1C [Compound 460] |  |  | < 80 | < 80 | 
16 | CCOC(=O)C(C)C(=O)N(C)c1sc(-c2cccnc2)nc1C (stereo not shown) [Compound 232] | < 80 | 80 to 100 |  |  | 
17 | CCN(C(=O)c1ccoc1)c1sc(-c2cccnc2)nc1Cl [Compound 573] |  |  | < 80 | < 80 | 
18 | CSCCOC(=O)N(C)c1cnc(-c2cncc(F)c2)s1 [Compound 75, [2-(5-fluoropyridin-3-yl)-thiazol-5-yl]-methyl-carbamic acid 2-methylsulfanyl-ethyl Ester] | 80 to 100 | < 80 |  |  | 
19 | CCN(C(=O)C(C)(C)C[S+](C)[O-])c1sc(-c2cncc(F)c2)nc1C (stereo not shown) [Compound 260] | 80 to 100 | 80 to 100 |  |  | 

Row | SMILES | pest or weed control at 200 ppm ([1]; green peach aphid) [%] | pest or weed control at 200 ppm ([2]; sweetpotato whitefly-crawler) [%] | pest or weed control at 200 ppm ([1]; Abbott's correction formula) [%] | pest or weed control at 200 ppm ([2]; Abbott's correction formula) [%] | further results
20 | CSCc1ccc(C(=O)N(C)c2sc(-c3cccnc3)nc2Cl)o1 [Compound 409] |  |  |  |  | MYZUPE 200 ppm (Corrected % Control, rating) ([1]; green peach aphid): A (80-100); BEMITA 200 ppm (Corrected % Control, rating) ([2]; sweetpotato whitefly-crawler): A (80-100)
21 | CCN(C(=O)c1ccc(C(C)=O)s1)c1sc(-c2cccnc2)nc1Cl [Compound 543] |  |  | 80 to 100 | 80 to 100 | 
22 | Cc1nc(-c2cccnc2)sc1N(CCF)C(=O)OC(C)(C)C [Compound 301] | 80 to 100 | 80 to 100 |  |  | 
23 | CSCC(=O)N(C)c1sc(-c2cccnc2)nc1C [Compound 367] | 80 to 100 | < 80 |  |  | 
24 | CN(C(=O)C(C)(C)C[S+](C)[O-])c1sc(-c2cccnc2)nc1Cl (stereo not shown) [Compound 269] | 80 to 100 | 80 to 100 |  |  | 
25 | CSCC(C)C(=O)N(C(=O)C(C)CSC)c1sc(-c2cncc(F)c2)nc1C (stereo not shown) [Compound 188] | 80 to 100 | 80 to 100 |  |  | 
26 | COc1cncc(-c2nc(C)c(N(C(=O)OC(C)(C)C)C(=O)C(C)CSC)s2)c1 (stereo not shown) [Compound 176] | < 80 | < 80 |  |  | 
27 | Cc1nc(C)n(CC(C)C(=O)N(C)c2sc(-c3cccnc3)nc2Cl)n1 (stereo not shown) [Compound 333] |  |  |  |  | MYZUPE 200 ppm (Corrected % Control, rating) ([1]; green peach aphid): A (80-100); BEMITA 200 ppm (Corrected % Control, rating) ([2]; sweetpotato whitefly-crawler): B (Less than 80)
28 | Cc1nc(-c2cccnc2)sc1NC(=O)CCC1CC1 [Compound 416] | 80 to 100 | 80 to 100 |  |  | 
29 | CSCC(C)C(=O)N(C(=O)C(C)C)c1sc(-c2cccnc2)nc1C (stereo not shown) [Compound 183] | 80 to 100 | 80 to 100 |  |  | 
30 | CCN(C(=O)C(C)C[S+](C)[O-])c1sc(-c2cccnc2)nc1Cl (stereo not shown) [Compound 348] | 80 to 100 | 80 to 100 |  |  | 
31 | C[S+]([O-])CCC(=O)Nc1sc(-c2cncc(F)c2)nc1Cl (stereo not shown) [Compound 451] |  |  |  |  | MYZUPE 200 ppm (Corrected % Control, rating) ([1]; Abbott's correction formula): A (80-100); BEMITA 200 ppm (Corrected % Control, rating) ([2]; Abbott's correction formula): B (Less than 80)
32 | CC1CC1C(=O)N(C)c1sc(-c2cccnc2)nc1Cl (stereo not shown) [Compound 569] |  |  | 80 to 100 | 80 to 100 | 
33 | Cc1nc(-c2cccnc2)sc1N(C)C(=O)CN(C)S(C)(=O)=O [Compound 433] |  |  | 80 to 100 | 80 to 100 | 
34 | CN(C(=O)C1CCSC1)c1sc(-c2cccnc2)nc1Cl (stereo not shown) [Compound 517] |  |  | 80 to 100 | < 80 | 
35 | Cc1nc(-c2cccnc2)sc1N(C)C(=O)C(CCCCNC(=O)OCc1ccccc1)NC(=O)OC(C)(C)C (stereo not shown) [Compound 291] | < 80 | < 80 |  |  | 
36 | CN(C(=O)C1CCOC1)c1sc(-c2cccnc2)nc1Cl (stereo not shown) [Compound 415] |  |  |  |  | MYZUPE 200 ppm (Corrected % Control, rating) ([1]; green peach aphid): A (80-100); BEMITA 200 ppm (Corrected % Control, rating) ([2]; sweetpotato whitefly-crawler): A (80-100)
37 | CC/N=C(\SCC)N(C)c1sc(-c2cccnc2)nc1C [Compound 471, 2,3-diethyl-1-methyl-1-(4-methyl-2-pyridin-3-yl-thiazol-5-yl)-isothiourea] |  |  | 80 to 100 | < 80 | 
38 | CCN(C(=O)CC(C)SC)c1sc(-c2cncc(F)c2)nc1C (stereo not shown) [Compound 300] | 80 to 100 | < 80 |  |  | 

Row | SMILES | pest or weed control at 200 ppm ([1]; green peach aphid) [%] | pest or weed control at 200 ppm ([2]; sweetpotato whitefly-crawler) [%] | pest or weed control at 200 ppm ([1]; Abbott's correction formula) [%] | pest or weed control at 200 ppm ([2]; Abbott's correction formula) [%] | further results
39 | CCN(C(=O)c1ccsc1)c1sc(-c2cccnc2)nc1Cl [Compound 527] |  |  | < 80 | 80 to 100 | 
40 | COc1cncc(-c2nc(Cl)c(N(C)C(=O)CC[S+](C)[O-])s2)c1 (stereo not shown) [Compound 514] |  |  | < 80 | < 80 | 
41 | CN(C(=O)OC(C)(C)C)c1cnc(-c2ccc(Cl)nc2)s1 [Compound 16, [2-(6-chloropyridin-3-yl)-thiazol-5-yl]-methyl-carbamic acid tert-butyl ester] | < 80 | 80 to 100 |  |  | 
42 | CC(=O)c1ccc(C(=O)N(C)c2sc(-c3cccnc3)nc2Cl)s1 [Compound 351] | < 80 | < 80 |  |  | 
43 | CC(=O)OC(C)C(=O)N(C)c1sc(-c2cccnc2)nc1Cl (stereo not shown) [Compound 336] |  |  |  |  | MYZUPE 200 ppm (Corrected % Control, rating) ([1]; green peach aphid): A (80-100); BEMITA 200 ppm (Corrected % Control, rating) ([2]; sweetpotato whitefly-crawler): A (80-100)
44 | CCN(C(=O)C(CSC)C(=O)CCSC)c1sc(-c2cccnc2)nc1Cl (stereo not shown) [Compound 496] |  |  | 80 to 100 | < 80 | 
45 | CN(C(=O)CC(C)(C)[S+](C)[O-])c1sc(-c2cccnc2)nc1Cl (stereo not shown) [Compound 521] |  |  | 80 to 100 | < 80 | 
46 | CCN(C(=O)Cc1ccncc1)c1sc(-c2cccnc2)nc1Cl [Compound 562] |  |  | 80 to 100 | < 80 | 
47 | CSCC(C)C(=O)N(C)c1sc(-c2cccnc2)nc1C (stereo not shown) [Compound 36] | 80 to 100 | 80 to 100 |  |  | 
48 | COCC(C)OC(=O)N(C)c1sc(-c2cccnc2)nc1C (stereo not shown) [Compound 484] |  |  | < 80 | 80 to 100 | 
49 | CN(C(=O)C(F)(F)F)c1cnc(-c2cncc(F)c2)s1 [Compound 1, 2,2,2-trifluoro-N-[2-(5-fluoropyridin-3-yl)-thiazol-5-yl]-N-methyl-acetamide] | < 80 | 80 to 100 |  |  | 
50 | CSCCC(=O)N(C)c1sc(-c2cccnc2)nc1C(F)(F)F [Compound 43] | 80 to 100 | 80 to 100 |  |  | 
51 | CCCC(C)OC(=O)N(C)c1sc(-c2cccnc2)nc1C (stereo not shown) [Compound 482] |  |  | 80 to 100 | 80 to 100 | 
52 | CSCC(C)C(=O)N(C)c1sc(-c2cccnc2)nc1C(C)C (stereo not shown) [Compound 60] | < 80 | < 80 |  |  | 
53 | CN(C(=S)NCCSc1ccc(Cl)cc1)c1sc(-c2cccnc2)nc1Cl [Compound 512] |  |  | < 80 | 80 to 100 | 
54 | CSCCCC(=O)N(C)c1sc(-c2cccnc2)nc1C [Compound 368] | 80 to 100 | 80 to 100 |  |  | 
55 | CSCC[C@H](NC(=O)OC(C)(C)C)C(=O)N(C)c1sc(-c2cccnc2)nc1C [Compound 281] | < 80 | < 80 |  |  | 
56 | COc1cncc(-c2nc(C)c(NC(=O)C(C)CSC)s2)c1 (stereo not shown) [Compound 137] | < 80 | < 80 |  |  | 
